From patent publication US5863763A (British Technology Group Ltd., priority 1994, dated 1999)
Square brackets hold non-standard residues; d marks the D form. Ends that are not written are not given here. Peptide text beside a SMILES is read from it. Hyp = O=C(O)[C@@H]1C[C@@H](O)CN1

What was measured:
hindgut of C. vomitoria = assay: Inhibition of peristalsis of the hindgut (ileum) of C. vomitoria; parameters: species or system Calliphora vomitoria; conditions: for inhibition of normal peristaltic movements of the ileum: at 1 μm, normal movements 9-10/min
Protocol: Adult female C. vomitoria were fed sugar, water and meat for 7 days prior to studying the effect of synthetic peptides (Affinity Research Products Ltd, Nottingham) on gut motility. The stage of development of the oocytes of each fly was recorded to provide a physiological base line. The gut and reproductive system were transferred to a 100-μl Sylgard chamber (Sylgard 184, Dow Corning) and bathed in a Calliphora Ringer's solution (Duve et al in Regul. Pept. 35 145-159 (1991)). Peristaltic movements of the ileum and the other forms of contraction in the rest of the gut and reproductive musculature were observed under a microscope. The preparation was superfused with several washes of Ringer's solution, after which peristaltic movements of the ileum were counted over a 2-minute period. The bathing fluid was replaced with fresh Ringer's solution containing the test peptide and the counting repeated. This procedure could be carried out many times for a single preparation.
Peptide solutions were made up in Ringer's solution on the day of the experiments, which were carried out at 22° C. Approximately 50 female flies were used.
Each point represents the mean of 5-16 measurements from a number of different vitellogenic female flies (callatostatin is abbreviated to cast in the figure).

[1] = test system: Juvenile Hormone III release from corpora allata of virgin P. americana; assay: Radiochemical assay, inhibition of JH III release from isolated corpora allata of P. americana; type: cell-based, Periplaneta americana; conditions: 4- to 6-day-old virgin females, three hour incubations, read-out: IC50, inhibition of JH release from isolated CA
Protocol: (§1) Peptides identified from the extracts were synthesized (Affinity Research Products) and tested in radiochemical assays to determine their effects on the synthesis and release of juvenile hormone bisepoxide from the isolated CA of vitellogenic female C. vomitoria. Similar assays were also carried out on the CA of the cockroaches P. americana (4- to 6-day-old virgin females) and B. germanica (6-day-old virgin females). Details of the methods used have been published previously (C. vomitoria in Duve et al in Proc. Nat'l. Acad. Sci. USA 90 2456-2460 (1993), P. americana in Weaver et al in C Comp. Pharmacol. Toxicol. 107, 119-127 (1994), and Weaver, R. C. in J. Insect Physiol. 37, 111-118 (1991), and B. germanica in Piulachs et al in A Comp. Physiol. 102, 477-480 (1992). For C. vomitoria and P. americana the donor methyl group for incorporation into the JH was provided by L-[methyl-^14 C]methionine, 2.04 GBq/mmol (Amersham International plc), added to methionine-free TCC 199 medium to give a final concentration of 260 μM and for B. germanica by L-[methyl-^3 H]methionine, 3.03 TBq/mmol (Amersham) added to TCC 199 medium containing methionine to achieve a concentration of 100 μM and a final specific activity of 7.4 GBq/mmol.
For comparison, the activity of Met-callatostatin was also assayed. […]

[2] = test system: juvenile hormone bisepoxide release from the CA of C. vomitoria; assay: Radiochemical assay, release of juvenile hormone bisepoxide from isolated CA of C. vomitoria; type: cell-based, Calliphora vomitoria; conditions: results not shown
Protocol: as §1

[3] = type: in vitro ADME, Periplaneta americana; conditions: for peptide remaining after incubation with haemolymph: 24 h
Protocol: Degradation of the Met-callatostatins induced by the haemolymph was assessed by measuring the difference between the amount of added peptide at the start of the incubation period and the total immunoassayable material present at its conclusion. Since the radioimmunoassay (RIA) is carboxy-terminal specific, any degradation at the carboxy-terminus, as for example by metalloendopeptidases able to cleave the Phe-Gly bond (Lamango et al in Insect Biochem. Mol. Biol. 23, 801-808 (1993)), would render the molecule non-immunoreactive. On the other hand partial amino-terminus degradation would result in peptides able to bind to the anti-Met-callatostatin antibodies present in the RIA solution. The mixture remaining after incubation would, therefore, contain all intact molecules and any degradation products with a carboxy-terminus of sufficient length to cross-react within the RIA. Experiments were carried out in an insect Ringer's solution containing Hepes buffer (Holman et al in Insect Biochem 21 107-112 (1991)) at 24° C. and pH 7.0 over several time periods from 15 minutes to 24 hours. In some experiments EDTA (10 mM final concentration) was added with the purpose of inhibiting metalloendopeptidases. For both C. vomitoria and P. americana 1 μl of a […] peptide solution was added to 20 μl of Ringer's solution and 15 μl pooled haemolymph. For C. vomitoria 15 μl was taken from the pooled haemolymph of 10 vitellogenic females, and for P. americana the same volume was obtained from 3-4 ootheca-carrying females. At the conclusion of the incubation period 5 μl of an 8% solution of trichloroacetic acid was added to stop the degradation process. The mixture was centrifuged for 1 minute, an 40 μl of the supernatant was added to 20 μl of water, 0.1% trifluoroacetic acid (TFA) prior to chromatography. Chromatography was carried out on a Kromasil™ (Technicol) C18 250×4.6 mm, 5 μm, 300 Å column with a gradient of 0-30% CH3 CN, 0.1% TFA at a flow rate of 1 ml/min with a rate of change of 1.0%/min. Fractions that were immunoreactive in the Met-callatostatin RIA were rechromatographed on a Delta Pak™ (Waters) C18 250×2.1 mm, 5 μm, 300 Å column with a gradient of 10-30% CH3 CN, 0.1% TFA at a flow rate of 0.2 ml/min with a rate of change of 0.5%/min. Peaks of Met-callatostatin-immunoreactive material were measured by RIA, and amino acid sequences were determined.

[4] = test system: Met-callatostatin antisera; assay: Liquid-phase absorption of Met-callatostatin antisera (ICC control); type: binding, rabbit; conditions: at 50 μM
Description: A variety of tissues including brain, corpora cardiaca-CA-hypocerebral ganglion complex, thoracicoabdominal ganglion, and the entire gut were fixed in aqueous Bouin's fluid, embedded in paraffin, and sectioned at 6 μm (Duve et al in Cell Tissue Res. 251, 399-415 (1988)). The peroxidase-antiperoxidase method of Sternberger (publ. "Immunocytochemistry" 1974)) was used in combination with the three Met-callatostatin antisera, from rabbits D1, D2 and D3, each of which gave essential, the same results. The results presented here were obtained mainly with antiserum from rabbit D1 bleed 5 used at a concentration of 1:2000 for 24 h at 4° C. Other tissues, including the brain, thoracicoabdominal ganglion, and the gut, complete with its neural connections, were fixed in 4% paraformaldehyde for whole-mount studies using the indirect immunofluorescence technique with either UV or confocal laser scanning microscopy. After fixation, tissues were washed in phosphate-buffered saline and permeabilized in methanol in phosphate-buffered saline. The tissues were washed in phosphate-buffered saline containing 0.2% bovine serum albumin and Triton X-100 (PBT buffer). Incubation of tissues with the Met-callatostatin antisera was at 4° C. over 24 h. […]

[5] = test system: JH release from CA of B. germanica; assay: Radiochemical assay, inhibition of JH release from isolated corpora allata of B. germanica; type: cell-based, Blattella germanica; conditions: results not shown
Protocol: as §1

[6] = pooled haemolymph of 10 vitellogenic females in insect Ringer's solution containing Hepes buffer; conditions: C. vomitoria, 24° C., up to 24 hours
[7] = pooled haemolymph of P. americana in insect Ringer's solution containing Hepes buffer, pH 7.0; conditions: P. americana (3-4 ootheca-carrying females), 24° C., up to 24 hours
[8] = pooled haemolymph of C. vomitoria in insect Ringer's solution containing Hepes buffer, pH 7.0; conditions: C. vomitoria (10 vitellogenic females), 24° C., up to 24 hours

CSCC[C@H](NC(=O)CNC(=O)[C@H](Cc1ccccc1)NC(=O)[C@H](CC(=O)O)NC(=O)[C@H](Cc1ccc(O)cc1)NC(=O)[C@@H]1C[C@@H](O)CN1C(=O)[C@@H]1CCCN1C(=O)CN)C(N)=O [[Hyp^3]Met-callatostatin, Gly-Pro-Hyp-Tyr-Asp-Phe-Gly-Met-NH2] (H-GP[Hyp]YDFGM-NH2)
inhibition of normal peristaltic movements of the ileum (hindgut of C. vomitoria): completely inhibited | IC50 [1]: 0.0001 µM | effect on the release of juvenile hormone bisepoxide from the CA [2]: neither peptide had any effect | cleavage product identified after incubation [3]: not | degradation by enzymes in the haemolymph of cockroaches [3]: not | degradation in haemolymph [3]: more resistant | peptide remaining after incubation with haemolymph [3]: less than 10% | abolition of immunostaining by absorption of antisera [4]: abolished the immunostaining | IC50 [5]: 1 µM

GPPYDFGM-NH2
fragment found [6]: oxidised form of the parent compound | fragment found [7]: Tyr-Asp-Phe-Gly-Met-NH2 (SEQ ID NO:9), 2-hour | fragment found [8]: oxidised form of the parent compound, 2-hour

GP[Hyp]YDFGM-NH2
fragment found [6]: oxidised form of the parent compound | fragment found [8]: oxidised form of the parent compound, 2-hour

CSCC[C@H](NC(=O)CNC(=O)[C@H](Cc1ccccc1)NC(=O)[C@H](CC(=O)O)NC(=O)[C@H](Cc1ccc(O)cc1)NC(=O)[C@@H]1CCCN1C(=O)[C@@H]1C[C@@H](O)CN1C(=O)CN)C(N)=O [[Hyp^2]Met-callatostatin, Gly-Hyp-Pro-Tyr-Asp-Phe-Gly-Met-NH2] (H-G[Hyp]PYDFGM-NH2)
degradation by enzymes in the haemolymph of cockroaches [3]: not

GPPYDFGM-NH2 [Met-callatostatin, Gly-Pro-Pro-Tyr-Asp-Phe-Gly-Met-NH2]
inhibition of normal peristaltic movements of the ileum (hindgut of C. vomitoria): completely inhibited | IC50 (hindgut of C. vomitoria; monophasic dose-response curve): 0.1 µM | IC50 [1]: 0.0001 µM | effect on the release of juvenile hormone bisepoxide from the CA [2]: neither peptide had any effect | cleavage product identified after incubation [3]: Tyr-Asp-Phe-Gly-Met-NH2 | degradation by enzymes in the haemolymph of cockroaches [3]: able to degrade | degradation in haemolymph [3]: degraded to approximately the same extent as in C. vomitoria | peptide remaining after incubation with haemolymph [3]: less than 10% | abolition of immunostaining by absorption of antisera [4]: abolished the immunostaining | IC50 [5]: 1 µM
